From patent US4946852A, “4(R)-substituted 6(S)-phenoxymethyl-, 6(S)-β-phenylethyl- and 6(S)-β-styryl-tetrahydropyran-2-ones, a highly stereoselective process for their preparation, pharmaceutical products based on these compounds, and their use” (Hoechst Aktiengesellschaft, priority 1986, dated 1990)

Target: T1, HMG-CoA reductase (Rattus norvegicus, UniProt P51639)
T1 sequence (P51639 1-887): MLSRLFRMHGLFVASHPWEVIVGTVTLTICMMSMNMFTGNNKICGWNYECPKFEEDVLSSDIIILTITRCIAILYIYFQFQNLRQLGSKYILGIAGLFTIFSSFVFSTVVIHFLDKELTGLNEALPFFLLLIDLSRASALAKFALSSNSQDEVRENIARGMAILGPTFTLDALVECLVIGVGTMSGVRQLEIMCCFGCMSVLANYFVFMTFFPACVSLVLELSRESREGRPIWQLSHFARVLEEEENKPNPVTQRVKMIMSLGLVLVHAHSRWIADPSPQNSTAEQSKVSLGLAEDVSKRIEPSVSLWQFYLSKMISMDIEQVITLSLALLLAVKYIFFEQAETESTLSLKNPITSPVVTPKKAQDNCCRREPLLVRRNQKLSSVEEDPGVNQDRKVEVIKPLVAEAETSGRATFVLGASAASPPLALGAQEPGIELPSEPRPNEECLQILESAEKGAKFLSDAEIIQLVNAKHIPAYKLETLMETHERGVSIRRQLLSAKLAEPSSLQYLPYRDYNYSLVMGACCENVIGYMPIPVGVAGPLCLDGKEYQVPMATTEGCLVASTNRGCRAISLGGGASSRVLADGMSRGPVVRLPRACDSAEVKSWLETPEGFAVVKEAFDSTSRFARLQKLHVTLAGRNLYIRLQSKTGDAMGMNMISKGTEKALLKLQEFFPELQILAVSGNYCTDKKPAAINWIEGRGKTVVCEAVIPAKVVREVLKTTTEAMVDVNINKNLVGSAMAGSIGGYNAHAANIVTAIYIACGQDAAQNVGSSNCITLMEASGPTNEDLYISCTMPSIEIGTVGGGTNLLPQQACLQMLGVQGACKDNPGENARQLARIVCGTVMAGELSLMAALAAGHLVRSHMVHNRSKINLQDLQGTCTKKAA
Experiment: Inhibition of HMG-CoA reductase activity on solubilized enzyme preparations from rat liver microsomes
Assay type: biochemical
Settings: solubilized rat-liver microsomal enzyme; for IC50: molar concentration required for 50% inhibition, (S,R) 14C-HMG-CoA substrate, mean of 3 parallel samples

| Compound | IC50 [nM] | inhibition (at 10^-6) [%] | inhibition (at 10^-7) [%] |
| --- | --- | --- | --- |
| CC(=O)S[C@H]1CC(=O)O[C@H](COc2c(C)cc(C)cc2CCCOc2ccc(F)cc2)C1 [Va, 6S-({[2-(4-Fluorophenoxy-3-propyl)]-4,6-dimethylphenoxy}methyl)-4R-acetylmercapto-3,4,5,6-tetrahydro-2H-pyran-2-one] | 300 | – | – |
| Cc1cc(C)c(OC[C@@H]2C[C@@H](SCc3ccccc3)CC(=O)O2)c(CCCOc2ccc(F)cc2)c1 [Vc, 6S-({[2-(4-Fluorophenoxy-3-propyl)]-4,6-dimethylphenoxy}methyl)-4R-benzylmercapto-3,4,5,6-tetrahydro-2H-pyran-2-one] | ~100000 | – | – |
| Cc1cc(C)c(OC[C@@H]2C[C@@H](SC[C@H](N)C(=O)O)CC(=O)O2)c(CCCOc2ccc(F)cc2)c1 [Ve, 6S-({[2-(4-Fluorophenoxy-3-propyl)]-4,6-dimethylphenoxy}methyl)-4R-[(R)-2-amino-3-mercaptyl-propionic acid]-3,4,5,6-tetrahydro-2H-pyran-2-one] | – | 37 | 24 |
| Cc1cc(C)c(OC[C@@H](O)C[C@@H](O)CC(=O)O)c(CCCOc2ccc(F)cc2)c1 [reference compound] | 200 | – | – |

More lines, in order of falling IC50, values ahead:

| IC50 [nM] | inhibition (at 10^-6) [%] | inhibition (at 10^-7) [%] | Compound |
| --- | --- | --- | --- |
| 1000 | – | – | Cc1cc(C)c(OC[C@@H]2C[C@@H](O)CC(=O)O2)c(CCCOc2ccc(F)cc2)c1 [A, 6(S)-{4,6-dimethyl-2-[3-(4-fluorophenoxy)propyl]phenoxymethyl}-3,4,5,6-tetrahydro-4(R)-hydroxy-2H-pyran-2-one, reference compound] |
| 1000 | – | – | Cc1cc(C)c(OC[C@@H]2C[C@@H](SCCO)CC(=O)O2)c(CCCOc2ccc(F)cc2)c1 [Vd, 6S-({[2-(4-Fluorophenoxy-3-propyl)]-4,6-dimethylphenoxy}methyl)-4R-β-hydroxyethylmercapto-3,4,5,6-tetrahydro-2H-pyran-2-one] |
